US20140378451A1, “Cannabinoid-2-Receptor Agonists” (ISIS INNOVATION LIMITED, priority 2011, published 2014)

Assays:
[1] = molecular target: T1, hCNR2 (CB2R) (Homo sapiens, UniProt P34972); assay: DiscoveRx cAMP Hunter Express GPCR assay (hCNR2 CHO-K1 cells); type: cell-based; conditions: for IC50: cAMP Hunter eXpress, hCNR2 CHO-K1 cells, read-out: Assay 2 IC50
T1 construct: host or cells: CHO-K1 (purchased recombinant cell line)
Procedure: (§1) Compounds were evaluated for their CB2R agonist potency in the following assays:
Assay 2—DiscoveRx cAMP Hunter Express GPCR Assay
The cAMP Hunter eXpress GPCR assay kit and cells used are from DiscoveRx Corporation (95-0040E2) using the manufacturer's protocol without the optional IBMX step. […] Briefly, hCNR2 CHO-K1 cells were plated in the provided medium (50 ul per well) in half-area 96-well plates (Corning 3885) and placed in an incubator 37° C. 5% CO2 overnight. Next day, the medium was aspirated and replaced with ‘antibody solution’ (22.5 ul) (provided concentrated, diluted 1 in 3 with ‘assay buffer’ provided). The freshly made compounds (at a ×4 final concentration) or solvent alone (1.2% DMSO) were added to the wells and incubated for 30 minutes in a 37° C. incubator 5% CO2. A mixture of lysis solution and two substrates (provided with the DiscoveRx kit) was added to the wells and incubated in the dark for one hour at room temperature. A detection reagent (provided) was then added to the wells and incubated in the dark for 3 hours at room temperature. The luminescence was then read with a Perkin-Elmer luminometer.

[2] = molecular target: T2, hCB2R (Homo sapiens, UniProt P34972); assay: cAMP assay on hCB2R clone 3D8.3 (transfected CHO-K1 cells); type: cell-based; conditions: for IC50: cAMP, hCNR2 CHO-K1 3D8.3 clone, read-out: Assay 1 IC50
T2 construct: unnamed tag of the plasmid; expressed in transfected cells
T2 sequence (P34972 whole entry): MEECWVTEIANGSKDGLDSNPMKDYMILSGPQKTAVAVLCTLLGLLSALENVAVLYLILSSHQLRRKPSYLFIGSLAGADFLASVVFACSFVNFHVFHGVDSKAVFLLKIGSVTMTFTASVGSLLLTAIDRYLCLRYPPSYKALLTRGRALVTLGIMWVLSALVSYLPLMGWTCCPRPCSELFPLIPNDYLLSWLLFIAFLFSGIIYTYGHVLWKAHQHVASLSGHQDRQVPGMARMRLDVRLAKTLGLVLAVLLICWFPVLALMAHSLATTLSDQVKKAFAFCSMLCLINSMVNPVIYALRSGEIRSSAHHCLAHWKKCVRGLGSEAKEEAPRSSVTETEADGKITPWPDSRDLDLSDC
Procedure: as §1
Assay 1—cAMP Assay on hCB2R Clone 3D8.3:
Chinese hamster ovary cells (CHO)-K1 were transfected with hCB2R plasmid using Genejuice (Merck). After 48 h the cells were transferred into flasks in the presence of the antibiotic G418 and expanded (with continuous replenishment of the antibiotic). Two single-cell cloning rounds were then performed, followed by verification of the presence of the tag of the plasmid and confirming the receptor was functional in cAMP studies. For the screening of compounds: Briefly, hCNR2 CHO-K1 (3D8.3 clone) cells were plated in Optimem+1% FCS (30000 cells, 100 ul per well) in half-area 96-well plates (Corning 3885) and placed in an incubator 37° C. 5% CO2 overnight. Next day, the medium was aspirated and replaced with ‘antibody solution’ (22.5 ul) (provided concentrated, diluted 1 in 3 with ‘assay buffer’ provided). The freshly made compounds (at a ×4 final concentration) or solvent alone (1.2% DMSO) were added to the wells and incubated for 30 minutes in a 37° C. incubator 5% CO2. A mixture of: Lysis solution (38%), substrates (Emerald-II™ (10%) and Galacton-Star® (2%)) and enzyme donor-labeled cAMP (50%) was added to the wells and incubated in the dark for one hour at room temperature. 30 μl of detection reagent (enzyme acceptor, provided) was then added to the wells and incubated in the dark for 3 hours at room temperature. The luminescence was then read with a Perkin-Elmer luminometer.

T1 sequence (P34972 whole entry): as above

IC50 [1] [nM] | IC50 [2] [nM] | Structure (SMILES) | Assay 2 decrease at 1 and 3 μM ([1]; at 1 and 3 μM) | Assay 1 activity at 3 μM ([2]; at 3 μM) [% activity at 3 μM]
39 | 228 | N#Cc1ccccc1CSc1nnc2c(n1)[nH]c1cccc(Br)c12 [Example 8, 2′-(((9-Bromo-5H-[1,2,4]triazino[5,6-b]indol-3-yl)thio)methyl)benzonitrile] | – | –
214 | 96 | N#Cc1ccccc1CSc1nnc2c3ccccc3n(Cc3ccccc3)c2n1 [Example 3, 2′-(((5-Benzyl-5H-[1,2,4]triazino[5,6-b]indol-3-yl)thio)methyl)benzonitrile] | – | –
19 | 14 | N#Cc1ccccc1CSc1nnc2c3ccccc3n(C(=O)c3ccno3)c2n1 [Example 24, 2′-(((5-(Isoxazole-5″-carbonyl)-5H-[1,2,4]triazino[5,6-b]indol-3-yl)thio)methyl)benzonitrile] | – | –
57 | 32 | N#Cc1ccccc1CSc1nnc2c3ccccc3n(C(=O)c3ccc(F)cc3)c2n1 [Example 20, 2′-(((5-(4″-Fluorobenzoyl)-5H-[1,2,4]triazino[5,6-b]indol-3-yl)thio)methyl)benzonitrile] | – | –
73 | 111 | N#Cc1ccccc1CSc1nnc2c3ccccc3n(C(=O)c3ccc(OC(F)(F)F)cc3)c2n1 [Example 21, 2′-(((5-(4″-(Trifluoromethoxy)benzoyl)-5H-[1,2,4]triazino[5,6-b]indol-3-yl)thio)methyl)benzonitrile] | – | –
201 | 201 | O=[N+]([O-])c1ccccc1CSc1nnc2c3ccccc3n(Cc3ccccc3F)c2n1 [Example 13] | – | –
32 | 12 | N#Cc1ccccc1CSc1nnc2c3ccccc3n(C(=O)C3CCCCC3)c2n1 [Example 18, 2′-(((5-(Cyclohexanecarbonyl)-5H-[1,2,4]triazino[5,6-b]indol-3-yl)thio)methyl)benzonitrile] | – | –
109 | 631 | O=[N+]([O-])c1ccccc1CSc1nnc2c3ccccc3n(Cc3ccc(Cl)cc3)c2n1 [Example 6, 5-(4″-Chlorobenzyl)-3-((2′-nitrobenzyl)thio)-5H-[1,2,4]triazino[5,6-b]indole] | – | –
53 | 355 | N#Cc1ccccc1CSc1nnc2c3ccccc3n(Cc3ccccc3[N+](=O)[O-])c2n1 [Example 10, 2′-(((5-(2″-Nitrobenzyl)-5H-[1,2,4]triazino[5,6-b]indol-3-yl)thio)methyl)benzonitrile] | – | –
– | – | CN(C)c1ccc(C(=O)n2c3ccccc3c3nnc(SCc4ccccc4C#N)nc32)cc1 [Example 16] | 20% decrease at 1 and 3 μM | ~40
37 | 280 | O=[N+]([O-])c1ccccc1CSc1nnc2c(n1)[nH]c1cccc(Br)c12 [Example 9, 9-Bromo-3-((2′-nitrobenzyl)thio)-5H-[1,2,4]triazino[5,6-b]indole] | – | –
49 | 14 | N#Cc1ccccc1CSc1nnc2c3ccccc3n(C(=O)C3CCCC3)c2n1 [Example 22, 2′-(((5-(Cyclopentanecarbonyl)-5H-[1,2,4]triazino[5,6-b]indol-3-yl)thio)methyl)benzonitrile] | – | –
